Where a name gives a salt, the structure may show the parent alone. Read-outs that look alike come from different tables or passages of the source.
Legend:
[1] = tested on: human cervical carcinoma SiHa; assay: Proliferation assay (IC50) under aerobic and hypoxic conditions, SiHa; format: cell-based; conditions: for IC50: 4 h drug exposure, sulforhodamine B; for HCR: hypoxic cytotoxicity ratio = IC50 aerobic/IC50 hypoxic
Method: (§1) Compounds representative of the invention were evaluated under both aerobic and hypoxic conditions in a proliferation assay (IC50), using two cell lines: human colon carcinoma HT29, and human cervical carcinoma SiHa (Table 1).
(§2) Drug exposures were performed in 96-well plates (Nunc) either using a 37 DC humidified incubator (20% O2, 5% CO2) or in the incubator compartment (37° C.) of an anaerobic chamber (Shell Lab) where palladium catalyst scrubbed gas (90% N2, 5% H2, 5% CO2) ensures severe anoxia (<0.001% O2). For each experiment, compounds were simultaneously tested under both oxic and hypoxic conditions and included TPZ as an internal control. An 8-methyl-5-nitroquinoline derivative, SN 24349, known to require very low oxygen concentrations for bioactivation (Siim et al., Br. J. Cancer 1994, 70, 596-603) was used to confirm that strict hypoxia was present during the experiment. […] Cell cultures were grown in αMEM (Gibco) containing 5% heat inactivated FCS and maintained in exponential growth phase. For each individual experiment an appropriate number of cells were seeded (HT29=1100; SiHa=1500) into wells in αMEM+10% FCS+10 mM added glucose+100 μM 2′-deoxycytidine (2′dCyd), and allowed to attach for 2-3 h. High glucose (final concentration 17 mM) and the presence of 2′-dCyd minimize hypoxia-induced cell cycle arrest. Cultures were then exposed to drugs, using 3-fold serial dilutions in duplicate, for a further 4 h. Subsequently cells were washed free of compound using complete media (without glucose/2′-dCyd) and allowed to grow for 5 (oxic) or 6 (anoxic) days. Plates were stained with sulforhodamine B as described previously (Wilson et al., J. Med. Chem. 1989, 32, 31-38) and IC50 values determined.
(§3) HCR=Hypoxic cytotoxicity ratio is defined as the ratio of IC50 values under aerobic and hypoxic conditions (IC50 aerobic/IC50 hypoxic).

[2] = tested on: human colon carcinoma HT29; assay: Proliferation assay (IC50) under aerobic and hypoxic conditions, HT29; format: cell-based; conditions: for IC50: 4 h drug exposure, sulforhodamine B; for HCR: hypoxic cytotoxicity ratio = IC50 aerobic/IC50 hypoxic
Method: as §1, §2, §3

[3] = hypoxic (anaerobic chamber, <0.001% O2), then 6 days growth, read-out: IC50 (μM) hypoxic
[4] = oxic (20% O2), then 5 days growth, read-out: IC50 (μM) oxic
[5] = Homo sapiens, hypoxic (anaerobic chamber, <0.001% O2), then 6 days growth, read-out: IC50 (μM) hypoxic
[6] = Homo sapiens, oxic (20% O2), then 5 days growth, read-out: IC50 (μM) oxic
[7] = Homo sapiens, HT-29, hypoxic (anaerobic chamber, <0.001% O2), then 6 days growth, read-out: IC50 (μM) hypoxic
[8] = Homo sapiens, HT-29, oxic (20% O2), then 5 days growth, read-out: IC50 (μM) oxic

melting point [°C] | IC50 [1, 3] [µM] | IC50 [1, 4] [µM] | IC50 [2, 3] [µM] | IC50 [2, 4] [µM] | IC50 [1, 5] [µM] | IC50 [1, 6] [µM] | IC50 [2, 7] [µM] | IC50 [2, 8] [µM] | SMILES | HCR [1] | HCR [2]
169 to 171 | – | – | – | – | – | – | – | – | CC(C)(C)[Si](C)(C)OCC1Cc2cc3nc(N)n[n+]([O-])c3cc2C1 (centres unmarked) | – | –
63 to 65 | – | – | – | – | – | – | – | – | CCc1nc2cc3c(cc2[n+]([O-])n1)CC(CO[Si](C)(C)C(C)(C)C)C3 (centres unmarked) | – | –
49 to 52 | – | – | – | – | – | – | – | – | C=CCc1nc2cc3c(cc2[n+]([O-])n1)CC(CO[Si](C)(C)C(C)(C)C)C3 (centres unmarked) | – | –
184 to 185 | – | – | – | – | – | – | – | – | [O-][n+]1nc(NCCN2CCOCC2)[n+]([O-])c2cc3c(cc21)CCC3 (as salt: hydrochloride) [Compound 45, N-[2-(4-Morpholinyl)ethyl]-7,8-dihydro-6H-indeno[5,6-e][1,2,4]triazin-3-amine 1,4-Dioxide] | – | –
210 to 212 | – | – | – | – | – | – | – | – | [O-][n+]1nc(CCCN2CCOCC2)nc2cc3c(cc21)CC(CO)C3 (centres unmarked) (as salt: hydrochloride) [Compound 140, {3-[3-(4-Morpholinyl)propyl]-1-oxido-7,8-dihydro-6H-indeno[5,6-e][1,2,4]triazin-7-yl}methanol] | – | –
131 to 133 | – | – | – | – | – | – | – | – | CCc1n[n+]([O-])c2cc3c(cc2[n+]1[O-])CC(CCN1CCOCC1)C3 (centres unmarked) (as salt: hydrochloride) [Compound 164, 3-Ethyl-7-[2-(4-morpholinyl)ethyl]-7,8-dihydro-6H-indeno[5,6-e][1,2,4]triazine 1,4-Dioxide] | – | –
182 to 185 | – | – | – | – | – | – | – | – | [O-][n+]1nc(NCCCN2CCOCC2)[n+]([O-])c2cc3c(cc21)CCCC3 (as salt: hydrochloride) [Compound 180, N-[3-(4-Morpholinyl)propyl]-6,7,8,9-tetrahydronaphtho[2,3-e][1,2,4]triazin-3-amine 1,4-Dioxide] | – | –
230 | – | – | – | – | – | – | – | – | CCN1Cc2cc3c(cc2C1)[n+]([O-])c(N)n[n+]3[O-] (as salt: hydrochloride) [Compound 250, 7-Ethyl-7,8-dihydro-6H-[1,2,4]triazino[5,6-f]isoindol-3-amine 1,4-Dioxide] | – | –
270 to 274 | – | – | – | – | – | – | – | – | Nc1nc2ccc3c(c2[n+]([O-])n1)CCC3 [Compound 4, 8,9-Dihydro-7H-indeno[5,4-e][1,2,4]triazin-3-amine 1-Oxide] | – | –
– | 13.9 | 460 | 37.6 | 902 | – | – | – | – | [O-][n+]1nc(NCCCN2CCOCC2)[n+]([O-])c2ccc3c(c21)CCC3 [Compound 15, N-[3-(1-Morpholinyl)propyl]-8,9-dihydro-7H-indeno[5,4-e][1,2,4]triazin-3-amine 1,4-Dioxide] | 33 | 24
– | – | – | – | – | 1.1 | 143 | 4.2 | 254 | CCN(CC)CCNc1n[n+]([O-])c2cc3c(cc2[n+]1[O-])CCC3 [Compound 27, N^1-(1,4-Dioxido-7,8-dihydro-6H-indeno[5,6-e][1,2,4]triazin-3-yl)-N^2,N^2-diethyl-1,2-ethanediamine] | 133 | 61
– | – | – | – | – | 46 ± 11 | 1750 ± 148 | 93 ± 11 | 1390 ± 349 | COC1CCCN(CCNc2n[n+]([O-])c3cc4c(cc3[n+]2[O-])CCC4)C1 (centres unmarked) [Compound 41, N-[2-(3-Methoxy-1-piperidinyl)ethyl]-7,8-dihydro-6H-indeno[5,6-e][1,2,4]triazin-3-amine 1,4-Dioxide] | 46 ± 17 | 19 ± 0.3
– | – | – | – | – | 9.9 ± 1.4 | 245 ± 60 | 19 ± 2 | 310 ± 109 | [O-][n+]1nc(NCCN2CCOCC2)[n+]([O-])c2cc3c(cc21)CCC3 [Compound 45, N-[2-(4-Morpholinyl)ethyl]-7,8-dihydro-6H-indeno[5,6-e][1,2,4]triazin-3-amine 1,4-Dioxide] | 28 ± 11 | 17 ± 6
– | – | – | – | – | 2.8 ± 1.2 | 217 ± 52 | 7.1 ± 0.6 | 399 ± 148 | [O-][n+]1nc(NCCN2CCCOCC2)[n+]([O-])c2cc3c(cc21)CCC3 [Compound 49, N-[2-(1,4-Oxazepan-4-yl)ethyl]-7,8-dihydro-6H-indeno[5,6-e][1,2,4]triazin-3-amine 1,4-Dioxide] | 86 ± 18 | 58 ± 26
– | – | – | – | – | 10.4 ± 0.6 | 231 ± 64 | 22 ± 1 | 87 ± 3 | N#CC1CCN(CCCNc2n[n+]([O-])c3cc4c(cc3[n+]2[O-])CCC4)C1 (centres unmarked) [Compound 57, 1-{3-[(1,4-Dioxido-7,8-dihydro-6H-indeno[5,6-e][1,2,4]triazin-3-yl)amino]propyl}-3-pyrrolidinecarbonitrile] | 22 ± 6 | 4 ± 0.1
– | – | – | – | – | 0.32 ± 0.09 | 194 ± 120 | 0.54 ± 0.07 | 195 ± 99 | CN(C)CCCc1n[n+]([O-])c2cc3c(cc2[n+]1[O-])CCC3 [Compound 79, N-[3-(1,4-Dioxido-7,8-dihydro-6H-indeno[5,6-e][1,2,4]triazin-3-yl)propyl]-N,N-dimethylamine] | 738 ± 523 | 386 ± 213
– | – | – | – | – | 0.58 ± 0.19 | 300 ± 162 | 1.3 ± 0.2 | 262 ± 83 | COC1CN(CCCc2n[n+]([O-])c3cc4c(cc3[n+]2[O-])CCC4)C1 [Compound 83, 3-[3-(3-Methoxy-1-azetidinyl)propyl]-7,8-dihydro-6H-indeno[5,6-e][1,2,4]triazine 1,4-Dioxide] | 640 ± 411 | 249 ± 129
– | – | – | – | – | 0.35 ± 0.01 | 133 ± 42 | 0.63 ± 0.05 | 161 ± 48 | [O-][n+]1nc(CCCN2CCCC2)[n+]([O-])c2cc3c(cc21)CCC3 [Compound 85, 3-[3-(1-Pyrrolidinyl)propyl]-7,8-dihydro-6H-indeno[5,6-e][1,2,4]triazine 1,4-Dioxide] | 385 ± 125 | 249 ± 55
– | – | – | – | – | 0.26 ± 0.08 | 219 ± 96 | 0.37 ± 0.05 | 202 ± 72 | [O-][n+]1nc(CCCN2CCCCC2)[n+]([O-])c2cc3c(cc21)CCC3 [Compound 87, 3-[3-(1-Piperidinyl)propyl]-7,8-dihydro-6H-indeno[5,6-e][1,2,4]triazine 1,4-Dioxide] | 1000 ± 431 | 598 ± 233
– | – | – | – | – | 1.3 | 95 ± 12 | 3.6 ± 1.1 | 121 ± 21 | CCc1n[n+]([O-])c2cc3c(cc2[n+]1[O-])CC(CCN1CCOCC1)C3 (centres unmarked) [Compound 164, 3-Ethyl-7-[2-(4-morpholinyl)ethyl]-7,8-dihydro-6H-indeno[5,6-e][1,2,4]triazine 1,4-Dioxide] | 84 | 36 ± 5
– | – | – | – | – | 1 | 62 | 3.4 | 60.5 | CN(C)CCNc1n[n+]([O-])c2c3c(ccc2[n+]1[O-])CCCC3 [Compound 173, N^1-(1,4-Dioxido-7,8,9,10-tetrahydronaphtho[2,1-e][1,2,4]triazin-3-yl)-N^2,N^2-dimethyl-1,2-ethanediamine] | 64 | 18
– | – | – | – | – | 2.6 ± 0.5 | 127 ± 14 | 6.3 ± 0.8 | 158 ± 19 | [O-][n+]1nc(NCCCN2CCOCC2)[n+]([O-])c2cc3c(cc21)CCCC3 [Compound 180, N-[3-(4-Morpholinyl)propyl]-6,7,8,9-tetrahydronaphtho[2,3-e][1,2,4]triazin-3-amine 1,4-Dioxide] | 54 ± 16 | 25 ± 3
– | – | – | – | – | 0.67 | 43.8 | 4.1 | 59.1 | CN(C)CCNc1n[n+]([O-])c2c3c(ccc2[n+]1[O-])OCCC3 [Compound 237, N^1-(1,4-Dioxido-9,10-dihydro-8H-chromeno[6,5-e][1,2,4]triazin-3-yl)-N^2,N^2-dimethyl-1,2-ethanediamine] | 66 | 14
– | – | – | – | – | 3.6 ± 0.5 | 145 ± 29 | 11 ± 3 | 188 ± 51 | [O-][n+]1nc(NCCCN2CCOCC2)[n+]([O-])c2cc3c(cc21)OCCC3 [Compound 244, N-[3-(4-Morpholinyl)propyl]-7,8-dihydro-6H-chromeno[6,7-e][1,2,4]triazin-3-amine 1,4-Dioxide] | 41 ± 10 | 19 ± 5
– | – | – | – | – | 0.85 | 36 ± 32 | 1.5 | 6.2 | CCN1Cc2cc3c(cc2C1)[n+]([O-])c(N)n[n+]3[O-] [Compound 250, 7-Ethyl-7,8-dihydro-6H-[1,2,4]triazino[5,6-f]isoindol-3-amine 1,4-Dioxide] | 80 | –

Reference: patent US7989451B2, “Tricyclic 1,2,4-triazine oxides and compositions for therapeutic use in cancer treatments” (Auckland Uniservices Limited, priority 2005, dated 2011)
